According to ChEMBL document CHEMBL1201862, “PubChem BioAssay data set” (2004):
Where “and” joins values, the source holds several entries; their conditions need not be identical. Identical values can stand only once.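 Compound exposure: 48 hours, 5 concentrations, 96-well plates. The concentration for 50% growth inhibition is given as GI50.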 Calls of active or inactive are those of the source. No stated cut-off is given here; in the data, active = GI50 up to about 1.1 µM and inactive = higher.

What was measured:
Assay in all cases: inhibition of tumour cell growth, NCI panel, 48 h
LOX IMVI = tested on: LOX IMVI
PC-3 = tested on: PC-3
BT-549 = tested on: BT-549
HCT-116 = tested on: HCT-116
OVCAR-4 = tested on: OVCAR-4
A549 = tested on: A549
DU-145 = tested on: DU-145
SR = tested on: SR
SNB-19 = tested on: SNB-19
RPMI-8226 = tested on: RPMI-8226
786-0 = tested on: 786-0
MOLT-4 = tested on: MOLT-4
NCI/ADR-RES = tested on: NCI/ADR-RES
CAKI-1 = tested on: CAKI-1
COLO 205 = tested on: COLO 205
SN12C = tested on: SN12C
SW-620 = tested on: SW-620
U-251 = tested on: U-251
HT-29 = tested on: HT-29
CCRF-CEM = tested on: CCRF-CEM
NCI-H460 = tested on: NCI-H460
NCI-H23 = tested on: NCI-H23
HL-60 = tested on: HL-60
Hs-578T = tested on: Hs-578T
MDA-MB-435 = tested on: MDA-MB-435
UO-31 = tested on: UO-31
MDA-N = tested on: MDA-N
UACC-257 = tested on: UACC-257
M14 = tested on: M14
SF-268 = tested on: SF-268
ACHN = tested on: ACHN
HOP-62 = tested on: HOP-62
HCT-15 = tested on: HCT-15
EKVX = tested on: EKVX
RXF 393 = tested on: RXF 393
NCI-H522 = tested on: NCI-H522
HOP-92 = tested on: HOP-92
A498 = tested on: A498
SK-MEL-28 = tested on: SK-MEL-28
OVCAR-5 = tested on: OVCAR-5
SF-295 = tested on: SF-295
KM12 = tested on: KM12
MCF7 = tested on: MCF7
OVCAR-3 = tested on: OVCAR-3
Malme-3M = tested on: Malme-3M
TK-10 = tested on: TK-10
HCC 2998 = tested on: HCC 2998
K562 = tested on: K562
SK-MEL-5 = tested on: SK-MEL-5
OVCAR-8 = tested on: OVCAR-8
MDA-MB-231 = tested on: MDA-MB-231
SK-MEL-2 = tested on: SK-MEL-2

How did the GI50 (LOX IMVI) turn out when `CCOC(=O)c1c(-c2ccc(O)c(OC)c2)c(C#N)c(=S)n(C2OC(COC(C)=O)C(OC(C)=O)C(OC(C)=O)C2OC(C)=O)c1-c1ccccc1` (stereo unspecified) was run?
The GI50 was 35.4 µM (inactive) and 48 µM (inactive).

What about the GI50 (PC-3) of the same compound?
The GI50 was 43.8 µM (inactive) and 31.4 µM (inactive).

What about the GI50 (BT-549) of the same compound?
The GI50 was 57.7 µM (inactive) and 32.6 µM (inactive).

What about the GI50 (HCT-116) of the same compound?
The GI50 was 47.9 µM (inactive) and 63.2 µM (inactive).

And the GI50 (OVCAR-4)?
The GI50 was > 100 µM (inactive).

What about the GI50 (A549) of the same compound?
Its GI50 is > 100 µM (inactive) and 94.4 µM (inactive).

What about the GI50 (DU-145) of the same compound?
The GI50 was 38.5 µM (inactive) and 35.2 µM (inactive).

And the GI50 (SR)?
The GI50 was > 100 µM (inactive).

And the GI50 (SNB-19)?
The GI50 was > 100 µM (inactive).

And the GI50 (RPMI-8226)?
The GI50 was 72.9 µM (inactive).

What about the GI50 (786-0) of the same compound?
Its GI50 is 71.6 µM (inactive) and 52.5 µM (inactive).

And the GI50 (MOLT-4)?
The GI50 was 48.9 µM (inactive) and 31.9 µM (inactive).

What about the GI50 (NCI/ADR-RES) of the same compound?
Its GI50 is 72.1 µM (inactive).

And the GI50 (CAKI-1)?
The GI50 was 65.2 µM (inactive).

And the GI50 (COLO 205)?
The GI50 was 43.3 µM (inactive) and 30.3 µM (inactive).

And the GI50 (SN12C)?
The GI50 was > 100 µM (inactive) and 88.9 µM (inactive).

And the GI50 (SW-620)?
Its GI50 is > 100 µM (inactive).

And the GI50 (U-251)?
The GI50 was > 100 µM (inactive).

And the GI50 (HT-29)?
The GI50 was 59.7 µM (inactive) and 32.1 µM (inactive).

What about the GI50 (CCRF-CEM) of the same compound?
Its GI50 is 58.7 µM (inactive) and 45.4 µM (inactive).

What about the GI50 (NCI-H460) of the same compound?
The GI50 was > 100 µM (inactive) and 70.1 µM (inactive).

And the GI50 (NCI-H23)?
The GI50 was 43.7 µM (inactive) and 61.1 µM (inactive).

What about the GI50 (HL-60) of the same compound?
Its GI50 is > 100 µM (inactive).

What about the GI50 (Hs-578T) of the same compound?
Its GI50 is > 100 µM (inactive).

What about the GI50 (MDA-MB-435) of the same compound?
Its GI50 is 56.2 µM (inactive) and 71 µM (inactive).

And the GI50 (UO-31)?
Its GI50 is 43.7 µM (inactive) and 62.1 µM (inactive).

What about the GI50 (MDA-N) of the same compound?
The GI50 was 61.7 µM (inactive) and 39.4 µM (inactive).

What about the GI50 (UACC-257) of the same compound?
Its GI50 is > 100 µM (inactive) and 62.2 µM (inactive).

And the GI50 (M14)?
The GI50 was 82.4 µM (inactive).

And the GI50 (SF-268)?
Its GI50 is > 100 µM (inactive) and 70.6 µM (inactive).

What about the GI50 (ACHN) of the same compound?
The GI50 was 48.8 µM (inactive) and 61.8 µM (inactive).

What about the GI50 (HOP-62) of the same compound?
The GI50 was 61.4 µM (inactive).

What about the GI50 (HCT-15) of the same compound?
Its GI50 is 98.2 µM.

And the GI50 (EKVX)?
Its GI50 is 96.8 µM (inactive) and 75.5 µM (inactive).

What about the GI50 (RXF 393) of the same compound?
Its GI50 is > 100 µM (inactive) and 58.9 µM (inactive).

What about the GI50 (NCI-H522) of the same compound?
Its GI50 is 18.8 µM (inactive) and 19.2 µM (inactive).

What about the GI50 (HOP-92) of the same compound?
The GI50 was 24.9 µM (inactive).

And the GI50 (A498)?
Its GI50 is > 100 µM (inactive).

And the GI50 (SK-MEL-28)?
Its GI50 is 58.2 µM (inactive).

What about the GI50 (OVCAR-5) of the same compound?
Its GI50 is > 100 µM (inactive).

What about the GI50 (SF-295) of the same compound?
The GI50 was > 100 µM (inactive).

And the GI50 (KM12)?
Its GI50 is 45.4 µM (inactive) and 50.8 µM (inactive).

What does the source list for `O=C(c1cccc2ccccc12)C1(Br)S(=O)(=O)OCCOS1(=O)=O`?
GI50 (LOX IMVI): > 100 µM (inactive); GI50 (BT-549): > 100 µM (inactive); GI50 (HCT-116): > 100 µM (inactive); GI50 (OVCAR-4): > 100 µM (inactive); GI50 (A549): > 100 µM (inactive); GI50 (DU-145): > 100 µM (inactive); GI50 (SR): > 100 µM (inactive); GI50 (SNB-19): > 100 µM (inactive); GI50 (RPMI-8226): > 100 µM (inactive); GI50 (MCF7): > 100 µM (inactive); GI50 (786-0): > 100 µM (inactive); GI50 (OVCAR-3): > 100 µM (inactive); GI50 (MOLT-4): > 100 µM (inactive); GI50 (NCI/ADR-RES): > 100 µM (inactive); GI50 (CAKI-1): > 100 µM (inactive); GI50 (COLO 205): > 100 µM (inactive); GI50 (SN12C): > 100 µM (inactive); GI50 (U-251): > 100 µM (inactive); GI50 (HT-29): > 100 µM (inactive); GI50 (Malme-3M): > 100 µM (inactive); GI50 (NCI-H460): > 100 µM (inactive); GI50 (NCI-H23): > 100 µM (inactive); GI50 (TK-10): > 100 µM (inactive); GI50 (HL-60): > 100 µM (inactive); GI50 (HCC 2998): > 100 µM (inactive); GI50 (K562): > 10 µM (inactive); GI50 (SK-MEL-5): > 100 µM (inactive); GI50 (MDA-MB-435): > 100 µM (inactive); GI50 (UO-31): > 100 µM (inactive); GI50 (MDA-N): > 100 µM (inactive); GI50 (UACC-257): > 100 µM (inactive); GI50 (M14): > 100 µM (inactive); GI50 (ACHN): > 100 µM (inactive); GI50 (HOP-62): > 100 µM (inactive); GI50 (OVCAR-8): > 100 µM (inactive); GI50 (HCT-15): > 100 µM; GI50 (EKVX): > 100 µM (inactive); GI50 (MDA-MB-231): > 100 µM (inactive); GI50 (HOP-92): > 10 µM (inactive); GI50 (SK-MEL-2): > 100 µM (inactive); GI50 (SK-MEL-28): > 100 µM (inactive); GI50 (OVCAR-5): > 100 µM (inactive); GI50 (SF-295): > 100 µM (inactive); GI50 (KM12): > 100 µM (inactive)
